Data on one compound can be found in article PMC2806030, “Inhibition of mammalian S6 kinase by resveratrol suppresses autophagy” (Aging (Albany NY), 2009).

Structures are written as SMILES.

Assay in all cases: biochemical
Holding throughout (parameters): Upstate KinaseProfiler in vitro kinase activity assay, per cent of DMSO control
Holding throughout (conditions): read-out: Activity (% of Control)

One experiment concerns the target T1, CHK2(h) (Homo sapiens, UniProt O96017).
T1 construct: gene CHEK2
The procedure:
(§1) Kinase profile and kinase assay. A Kinase profile against 100 kinases listed for resveratrol at 20 μM was generated utilizing Upstate's KinaseProfiler™ service. Assay protocols for each kinase are available from Upstate (Lake Placid, NY). In vitro kinase assay was performed as described previously. Briefly, HEK293 cells were transfected with HA-S6K1 wt, HA-S6K1 K100R, or vector as indicated. Cells were treated with 1 μg/ml insulin for 10 minutes prior to harvesting in PBS + 0.5% NP-40 + protease and phosphatase inhibitors. 125 μg of lysate per sample was immunoprecipitated using 0.5 μg/sample of anti-HA High-Affinity (Roche, Basel Switzerland). Beads from immunoprecipitations were washed three times in lysis buffer and once in kinase buffer, and kinase assays were performed with recombinant GST-S6 as substrate (1 μg per assay). In the indicated lanes varying doses of resveratrol or DMSO control were added to the reaction prior to addition of the GST-S6 substrate. All samples were subjected to SDS-PAGE, and 32P incorporation was quantified by using a Bio-Rad (Hercules, CA) Phosphor-Imager and subsequent analysis with ImageJ (NIH).  Figure 4. Resveratrol inhibits S6K1 in vitro. (A) Structural similarity between resveratrol and quercetin, a known kinase inhibitor. (B) Kinase inhibition profile for resveratrol at 20 μM obtained using KinaseProfiler™ (Upstate). Dashed line represents 100% activity as compared to control. Black filled-in bar on the graph indicates S6K1. Complete data set is provided in Supplementary Table 1. Error bars represent s.d.m. (C) Phosphorylation of recombinant GST-tagged S6 by immunoprecipitated HA-S6K1 under increasing concentrations of resveratrol (Res). Autoradiograph depicts S6K1 phosphorylation of GST-S6. (D) Average of three separate kinase assay experiments as performed in (C). Densitometry was performed using NIH ImageJ. Error bars represent s.e.m. […] Therefore, we hypothesized that the effect of resveratrol on autophagy could be related to inhibition of one or more upstream kinases. To test this, we performed an in vitro kinase screen and determined an inhibition profile for resveratrol. […] With the exception of S6K1, these kinases play primary roles in the hematopoietic system, and were thus viewed as unlikely to have been responsible for the effect we were studying. […] On the other hand, S6K1 is known to play a requisite role in the regulation of autophagy in Drosophila, making it a promising candidate for the in vivo target of resveratrol that is responsible for inhibition of autophagy.

The next experiment concerns the target T2, cSRC(h) (Homo sapiens, UniProt P12931).
T2 construct: gene SRC
The procedure: as §1

Another experiment addresses TBK1(h) (Homo sapiens, UniProt Q9UHD2). The procedure:
as §1

In the next experiment the target is T3, cKit(h) (Homo sapiens, UniProt P10721).
T3 construct: gene KIT
As for the experimental part:
as §1

In the next experiment the target is DAPK1(h) (Homo sapiens, UniProt P53355). As for the experimental part: as §1
The next experiment has as its target T4, Abl(h) (Homo sapiens, UniProt P00519).
T4 construct: gene ABL1
The procedure: as §1

In the next experiment the target is EGFR(h) (Homo sapiens, UniProt P00533). The procedure:
as §1

For the next experiment, the target named is T5, MST2(h) (Homo sapiens, UniProt Q13188).
T5 construct: gene STK3
As for the experimental part: as §1

Another experiment concerns the target T6, PI 3-Kinaseδ(h) (Homo sapiens, UniProt O00329).
T6 construct: gene PIK3CD
As for the experimental part: as §1

In another experiment the target is T7, PKCα(h) (Homo sapiens, UniProt P17252).
T7 construct: gene PRKCA
As for the experimental part: as §1

The target in the next experiment is CSK(h) (Homo sapiens, UniProt P41240). The procedure:
as §1

For a further experiment, the target named is T8, TAK1(h) (Homo sapiens, UniProt O43318).
T8 construct: gene MAP3K7
As for the experimental part: as §1

The target of the next experiment is DAPK2(h) (Homo sapiens, UniProt Q9UIK4). As for the experimental part:
as §1

The target in the next experiment is T9, PKBγ(h) (Homo sapiens, UniProt Q9Y243).
T9 construct: gene AKT3
As for the experimental part: as §1

Another experiment concerns the target SGK2(h) (Homo sapiens, UniProt Q9HBY8). As for the experimental part: as §1
The next experiment deals with Fgr(h) (Homo sapiens, UniProt P09769). As for the experimental part:
as §1

The target of a further experiment is T10, SAPK2a(T106M)(h) (Homo sapiens, UniProt Q16539, T106M).
T10 construct: gene MAPK14
As for the experimental part:
as §1

The target in the next experiment is NEK3(h) (Homo sapiens, UniProt P51956). As for the experimental part:
as §1

T3 sequence (P10721 whole entry): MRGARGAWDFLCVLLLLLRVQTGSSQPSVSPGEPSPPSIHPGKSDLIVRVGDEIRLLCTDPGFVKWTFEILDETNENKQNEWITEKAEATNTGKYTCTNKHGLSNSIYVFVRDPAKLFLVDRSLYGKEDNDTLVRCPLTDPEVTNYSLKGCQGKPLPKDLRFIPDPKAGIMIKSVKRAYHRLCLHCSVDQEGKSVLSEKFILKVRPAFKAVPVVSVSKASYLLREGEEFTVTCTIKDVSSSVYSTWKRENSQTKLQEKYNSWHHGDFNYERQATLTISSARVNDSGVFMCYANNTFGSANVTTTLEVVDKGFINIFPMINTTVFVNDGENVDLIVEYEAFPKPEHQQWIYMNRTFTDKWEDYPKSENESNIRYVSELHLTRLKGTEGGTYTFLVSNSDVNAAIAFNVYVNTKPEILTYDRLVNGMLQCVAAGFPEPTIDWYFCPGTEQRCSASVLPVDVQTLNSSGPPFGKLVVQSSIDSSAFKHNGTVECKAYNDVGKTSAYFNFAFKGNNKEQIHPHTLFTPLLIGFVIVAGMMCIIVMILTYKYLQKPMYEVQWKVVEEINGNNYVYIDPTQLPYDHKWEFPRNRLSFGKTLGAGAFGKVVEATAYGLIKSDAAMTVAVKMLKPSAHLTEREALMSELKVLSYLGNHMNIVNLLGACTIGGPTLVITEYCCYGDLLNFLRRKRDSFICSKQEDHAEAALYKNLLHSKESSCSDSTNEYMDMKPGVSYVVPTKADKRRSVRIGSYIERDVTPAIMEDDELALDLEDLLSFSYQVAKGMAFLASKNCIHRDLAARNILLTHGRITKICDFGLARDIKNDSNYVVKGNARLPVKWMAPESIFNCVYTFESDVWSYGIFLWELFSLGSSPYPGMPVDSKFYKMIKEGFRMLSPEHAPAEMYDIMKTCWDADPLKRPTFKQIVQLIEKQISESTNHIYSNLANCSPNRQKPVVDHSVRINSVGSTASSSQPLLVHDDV
T9 sequence (Q9Y243 whole entry): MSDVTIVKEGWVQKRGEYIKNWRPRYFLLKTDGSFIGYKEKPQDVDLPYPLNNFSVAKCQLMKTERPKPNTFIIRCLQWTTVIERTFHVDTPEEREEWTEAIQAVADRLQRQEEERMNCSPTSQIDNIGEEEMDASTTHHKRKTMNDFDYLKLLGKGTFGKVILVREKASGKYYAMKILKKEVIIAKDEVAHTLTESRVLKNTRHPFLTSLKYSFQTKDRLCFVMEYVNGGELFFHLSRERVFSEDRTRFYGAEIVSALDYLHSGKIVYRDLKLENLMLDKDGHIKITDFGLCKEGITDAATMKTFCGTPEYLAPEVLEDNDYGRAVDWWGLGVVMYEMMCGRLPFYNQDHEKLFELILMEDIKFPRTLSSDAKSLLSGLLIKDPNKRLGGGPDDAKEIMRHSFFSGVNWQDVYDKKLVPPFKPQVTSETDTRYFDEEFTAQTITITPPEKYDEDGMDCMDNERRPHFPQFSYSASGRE
T6 sequence (O00329 whole entry): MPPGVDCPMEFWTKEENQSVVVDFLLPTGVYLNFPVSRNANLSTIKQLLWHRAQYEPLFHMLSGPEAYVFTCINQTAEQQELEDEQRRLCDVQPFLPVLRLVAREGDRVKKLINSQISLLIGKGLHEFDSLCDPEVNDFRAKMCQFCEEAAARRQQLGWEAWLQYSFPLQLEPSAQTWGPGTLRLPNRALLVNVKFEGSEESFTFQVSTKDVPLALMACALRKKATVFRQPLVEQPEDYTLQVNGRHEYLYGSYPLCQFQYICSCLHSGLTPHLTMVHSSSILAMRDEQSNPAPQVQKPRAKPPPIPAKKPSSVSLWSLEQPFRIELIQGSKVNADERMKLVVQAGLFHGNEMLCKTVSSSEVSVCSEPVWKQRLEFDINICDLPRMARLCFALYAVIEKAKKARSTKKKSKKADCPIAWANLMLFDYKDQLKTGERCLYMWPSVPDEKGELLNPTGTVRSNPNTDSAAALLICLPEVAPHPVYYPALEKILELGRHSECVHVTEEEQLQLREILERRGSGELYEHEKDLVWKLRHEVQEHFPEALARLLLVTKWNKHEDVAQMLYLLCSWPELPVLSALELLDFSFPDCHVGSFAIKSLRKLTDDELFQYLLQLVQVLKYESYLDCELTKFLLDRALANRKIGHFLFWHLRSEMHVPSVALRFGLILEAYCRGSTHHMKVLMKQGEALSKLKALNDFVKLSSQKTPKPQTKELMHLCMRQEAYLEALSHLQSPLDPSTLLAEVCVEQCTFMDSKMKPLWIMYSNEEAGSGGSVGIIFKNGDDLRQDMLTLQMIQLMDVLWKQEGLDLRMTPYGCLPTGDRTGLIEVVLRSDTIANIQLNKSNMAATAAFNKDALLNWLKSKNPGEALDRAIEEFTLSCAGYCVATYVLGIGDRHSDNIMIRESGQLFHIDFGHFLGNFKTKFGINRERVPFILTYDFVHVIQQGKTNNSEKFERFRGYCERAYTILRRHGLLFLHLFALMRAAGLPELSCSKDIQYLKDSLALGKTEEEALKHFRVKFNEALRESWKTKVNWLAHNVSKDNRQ
T6 sequence (P27986 whole entry partner): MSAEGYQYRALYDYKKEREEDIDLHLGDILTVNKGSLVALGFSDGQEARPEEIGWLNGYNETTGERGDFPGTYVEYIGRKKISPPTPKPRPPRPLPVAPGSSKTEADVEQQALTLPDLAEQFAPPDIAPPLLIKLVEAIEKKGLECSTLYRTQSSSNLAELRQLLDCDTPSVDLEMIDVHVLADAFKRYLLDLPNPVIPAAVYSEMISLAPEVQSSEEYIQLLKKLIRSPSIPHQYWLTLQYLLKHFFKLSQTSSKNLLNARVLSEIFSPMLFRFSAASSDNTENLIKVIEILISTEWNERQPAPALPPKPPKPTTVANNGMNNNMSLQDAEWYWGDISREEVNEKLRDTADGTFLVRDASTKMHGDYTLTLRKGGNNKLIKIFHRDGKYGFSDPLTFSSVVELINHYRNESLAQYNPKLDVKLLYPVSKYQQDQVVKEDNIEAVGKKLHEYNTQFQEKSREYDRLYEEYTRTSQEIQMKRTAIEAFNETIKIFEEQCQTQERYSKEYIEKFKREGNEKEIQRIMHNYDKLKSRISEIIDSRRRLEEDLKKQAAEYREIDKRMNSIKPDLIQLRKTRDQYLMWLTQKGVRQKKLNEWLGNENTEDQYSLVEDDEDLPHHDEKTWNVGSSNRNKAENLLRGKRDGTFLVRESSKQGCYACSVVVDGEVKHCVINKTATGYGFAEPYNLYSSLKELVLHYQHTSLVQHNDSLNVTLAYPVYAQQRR
DAPK2(h), sequence (Q9UIK4 whole entry): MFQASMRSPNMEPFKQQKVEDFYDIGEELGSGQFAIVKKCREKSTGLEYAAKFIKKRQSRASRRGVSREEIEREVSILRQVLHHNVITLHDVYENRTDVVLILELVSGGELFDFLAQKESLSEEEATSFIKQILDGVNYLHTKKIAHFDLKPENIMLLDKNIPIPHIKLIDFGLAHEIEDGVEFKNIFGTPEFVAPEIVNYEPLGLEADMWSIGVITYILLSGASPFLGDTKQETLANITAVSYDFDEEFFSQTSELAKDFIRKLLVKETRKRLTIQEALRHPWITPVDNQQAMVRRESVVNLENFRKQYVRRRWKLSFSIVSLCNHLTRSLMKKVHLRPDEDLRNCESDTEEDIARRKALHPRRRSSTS
T10 sequence (Q16539 whole entry T106M): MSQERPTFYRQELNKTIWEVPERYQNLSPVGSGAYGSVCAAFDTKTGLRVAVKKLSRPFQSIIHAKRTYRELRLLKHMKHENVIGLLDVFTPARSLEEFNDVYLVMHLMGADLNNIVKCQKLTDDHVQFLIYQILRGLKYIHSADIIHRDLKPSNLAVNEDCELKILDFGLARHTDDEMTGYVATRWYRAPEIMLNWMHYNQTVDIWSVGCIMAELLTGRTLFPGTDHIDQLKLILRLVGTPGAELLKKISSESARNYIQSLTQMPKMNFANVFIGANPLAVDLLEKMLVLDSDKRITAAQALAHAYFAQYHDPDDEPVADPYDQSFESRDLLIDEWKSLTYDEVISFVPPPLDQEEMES
CSK(h), sequence (P41240 whole entry): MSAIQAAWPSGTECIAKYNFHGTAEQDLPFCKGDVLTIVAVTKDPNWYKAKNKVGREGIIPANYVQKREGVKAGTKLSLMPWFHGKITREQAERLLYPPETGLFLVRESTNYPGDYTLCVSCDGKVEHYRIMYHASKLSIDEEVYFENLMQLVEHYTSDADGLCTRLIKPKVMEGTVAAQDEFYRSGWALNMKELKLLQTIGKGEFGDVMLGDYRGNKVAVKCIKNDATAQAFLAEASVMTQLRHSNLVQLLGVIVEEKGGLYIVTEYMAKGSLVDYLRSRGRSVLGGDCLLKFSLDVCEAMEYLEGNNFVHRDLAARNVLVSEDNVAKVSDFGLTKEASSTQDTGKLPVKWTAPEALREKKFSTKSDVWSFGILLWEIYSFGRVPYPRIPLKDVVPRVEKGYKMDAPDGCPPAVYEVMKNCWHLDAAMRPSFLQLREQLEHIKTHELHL
Fgr(h), sequence (P09769 whole entry): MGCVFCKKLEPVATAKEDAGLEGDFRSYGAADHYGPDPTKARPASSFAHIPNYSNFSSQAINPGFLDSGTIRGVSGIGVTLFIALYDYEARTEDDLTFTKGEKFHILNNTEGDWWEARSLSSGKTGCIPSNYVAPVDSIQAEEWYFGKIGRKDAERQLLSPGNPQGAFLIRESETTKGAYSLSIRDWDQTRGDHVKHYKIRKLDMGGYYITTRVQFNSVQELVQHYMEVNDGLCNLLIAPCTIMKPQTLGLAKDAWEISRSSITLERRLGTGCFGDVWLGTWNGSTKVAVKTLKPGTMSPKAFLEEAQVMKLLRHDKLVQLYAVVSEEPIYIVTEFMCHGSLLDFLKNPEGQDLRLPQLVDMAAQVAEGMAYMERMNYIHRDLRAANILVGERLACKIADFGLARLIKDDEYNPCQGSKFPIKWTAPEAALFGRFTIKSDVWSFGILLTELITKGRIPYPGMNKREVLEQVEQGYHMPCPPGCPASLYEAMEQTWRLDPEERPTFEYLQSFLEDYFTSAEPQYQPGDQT

Take `Oc1ccc(/C=C/c2cc(O)cc(O)c2)cc1` [Res, resveratrol]: the remaining activity at 20 µM is 59 ± 6% at CHK2(h); 61 ± 1% on cSRC(h); 62 ± 4% at TBK1(h); 68% on cKit(h); 71 ± 3% at DAPK1(h); 105 ± 7% at Abl(h). Also, the remaining activity at 20 µM at EGFR(h) was 90 ± 5%; at MST2(h), 73 ± 8%; on PI 3-Kinaseδ(h), 106 ± 1%; at PKCα(h) it was 114 ± 9%; on CSK(h) it was 94 ± 5%; on TAK1(h) it was 105 ± 3%. For the same compound, the remaining activity at 20 µM at DAPK2(h) turned out to be 67 ± 7%; on PKBγ(h), 89 ± 4%; on SGK2(h), 70 ± 1%; at Fgr(h), 78 ± 5%; at SAPK2a(T106M)(h), 102 ± 2%; at NEK3(h), 96 ± 8%.
